We go through three compounds from US6503709B1, “Methods for rapidly detecting methicillin resistant staphylococci” (priority 1997, dated 2003).

In brackets after ≈: the same amount, converted by molar mass. {Fluorescein} = fluorescein label; {Biotin} = biotin label; d = 2'-deoxy (DNA); r = 2'-OH (RNA)

Series [1] has as its system mecA gene. Nature of the series: Non-isotopic CPT assay (CPT-EIA) on crude lysates of clinical isolates. Conditions: n = 51, subtractive CPT assay. It counts as biochemical, Staphylococcus aureus. An excerpt: The non-isotopic MRSA Assay which combines CPT with an enzyme immunoassay (CPT-EIA) is schematically illustrated in FIG. 3. This Rapid MRSA Test uses a fluoresceinated and biotinylated chimeric probe which provides an RNase H sensitive scissile linkage when bound to the complementary base sequence of the mecA gene. The uncleaved probe (mecA negative) is detected by binding of the probe to a solid surface and attachment of an antibody conjugated with horse radish peroxidase, which converts a substrate to a colored end product. Cleavage of the probe (mecA positive) prevents binding of the probe-antibody complex to the solid surface thus preventing formation of the colored end product. A result is generated in 90 minutes.
Effective lysis of both MRSA and MSSA were developed and optimized. The composition of the Lysis Reagent is as follows: 200 Units/ml of achromopeptidase (Wako Bioproducts, Wako), 0.02 mg/ml lysostaphin (Sigma, St. Louis, Mo.), 0.05% (v/v) Triton X 100® and 20 mM TES buffer, pH 8.5. […]
After cycling, 100 μl of Binding Reagent (Peroxidase Stabilizing Buffer, DAKO, Mississauga, ON), sheep polyclonal anti-fluorescein-horse radish peroxidase conjugated antibody (1/750 dilution, NEN, Boston, Mass.) was added to the tubes. […] The plate is read using a Vmax plate reader (Molecular Devices) set at OD of 650 nm (OD650).

The next series has as its system mecA 227 bp amplicon. Nature of the series: PCR followed by CPT-EIA detection of amplicon. It counts as biochemical, Staphylococcus aureus. How it is done: Crude lysates of MSSA (ATCC 11632) and MRSA (ATCC 33592) strains were grown overnight at 37° C. on tryptic soy agar with 5% sheep blood (PML Microbiologicals, Tualatin, Oreg.). A cell suspension was made in TES buffer (20 mM TES (pH 6.8), 0.05% Triton X-100) to obtain a cell density equivalent to a 5×McFarland#5 standard of turbidity (7.5×10^9 cells/ml). The cells were lysed with 150 U/ml achromopeptidase (Wako ) for 25 min at 37° C. After lysis, the cells were stored at −20° C. Adequate dilutions were made in deionized sterile water.
The PCR reaction was carried out in a 25 μl reaction containing 20 mM Tris,(pH 8.3) 1.5 MM MgCl2 0.2 mM dNTPs (Pharmacia), 6.25 pmol of each primer (Table 1) and 0.5 U AmpliTaq Gold (Perkin Elmer). The PTC-100 Programmable Thermal Cycler (MJ Research, Inc.) was used with the following PCR program: 95° C. for 10 min., 20×(94° C. for 40 s, 53° C. for 40 s and 72° C. for 1.5 min). The reaction was submitted to a final extension step at 72° C. for 5 min. and then held at 4° C. prior to analysis. PCR reactions were analyzed by CPT as described below or using a 2% agarose gel and ethidium bromide (Et-Br) staining.
The 227 bp mecA PCR product was used as a standard to determine the sensitivity of CPT-EIA and Et-Br stained gels. The amplicon was prepared as follows: several 100 μl reactions were subjected to 30 cycle PCR and the amplicon was purified using a Qiagen PCR purification kit as recommended by the manufacturer. The 227 bp product was quantified by spectrophometer and used as a standard.
CPT-EIA. The 25 μl PCR reaction was heat denatured at 95° C. for 2 min and then placed at 54° C. The CPT components in 25 μl were added to the PCR reaction to give a CPT reaction volume of 50 μl. […]

For series [2], the system named is mecA gene. The experiment in a line: CPT Direct Fluorescence Assay (CPT-DFA) on crude lysates. Type of series: biochemical, Staphylococcus aureus. The method, then:
Two experiments were carried out for the detection of the mecA gene from clinical isolates using the direct fluorescence assay (DFA) combined with CPT (CPT-DFA). In the first experiment, 58 isolates were screened using a plate reader format, and in the second experiment, 120 isolates were screened using single tube reader format. Briefly, the assay uses a fluoresceinated and biotinylated chimeric probe complementary to a sequence within the mecA gene present in MRSA, but not in MSSA. The probe is labeled with fluorescein at the 5′ end and biotin at the 3′ end. The CPT assay is performed with crude lysate preparations from Staphylococcal cells in the presence of RNase H and the chimeric probe. After the cycling reaction, streptavidin coated magnetic beads are added to bind the uncleaved probe. The supernatant containing the cleaved fragment labeled with fluorescein is separated from the beads using a magnet and the supernatant is transferred to a glass tube or a microtiter plate for fluorescence measurement.
The source of the fifty-eight clinical isolates were obtained from Cleveland Hospital, Wishard Memorial and Vancouver General Hospital. All MRSA and MSSA cells were prepared and lysed essentially as described in Example 4 except that the lysates were prepared as either 2×McFarland No. 5 standard density or 1 μl loop of cells in 50 μl volume. One μl loop of cells is approximately equivalent to 5×McFarland No. 5 standard.
The streptavidin coated magnetic beads (Dynal M-280, Oslo, Norway) were prepared by washing two times in an equal volume of TES cycling buffer (4 mM MgCl2, 0.05% Triton X-100®, 20 mM TES, pH 6.8). The beads were then re-suspended in 10 times the original volume with cycling buffer containing NaCl. The diluted beads were added to the reactions containing biotinylated probe to a final concentration of 50 μg of beads/reaction and a final NaCl concentration of 1.5 M. Binding was carried out in a thermomixer (Eppendorf) at 37° C. with mixing at a speed of 13×100 minutes^−, for 10 minutes. The supernatant was then separated from the beads using an MPC magnet (Dynal).
Probe was detected after binding using the Fluoroskan fluorescence plate reader (Labsystems, Needham. Mass.) by placing the supernatant containing the cleaved probe in a well of MicroFluor ‘U’ black round bottom plate (Dynatech, Chantilly, Va.). To each well containing a sample, 150 μl of 0.22 M DEA pH 10 was added. Any bubbles in the wells were removed using the edge of a Kimwipe (Roswell, Ga.). The plate was scanned in the plate reader with an excitation wavelength of 485 nm, an emission wavelength of 538 nm and a scan/well time of 20×0.1 sec, at room temperature. Similar detection using the Beacon-2000 tube reader (Panvera, Madison, Wis.) was performed, by placing the supernatant containing the probe in a borosilicate glass tube (Kimble, Toledo, Ohio), that contains 11 μl of 2.0 M DEA, pH 10. The samples were then vortexed and the fluorescence intensity was measured using the static mode of the Beacon-2000 instrument. The excitation and emission wavelengths were 485 nm and 515 nm respectively and an average of 10 read cycles at 25° C. was used.
The assay used a chimeric probe FmecA945-29(XL)4B3 (SEQ ID NO:5) labeled with fluorescein at the 5′ end and three biotin at the 3′ end. Cycling reactions with crude lysate were performed in a 50 PI reaction containing 25 μl of crude lysates. The lysates were denatured at 95° C. for 2 minutes. CPT reaction was carried out and the final conditions were as follows: 1 pmol chimeric probe, 25 μl of crude lysates, 50 μM EDTA, 0.5 mM spermine, 1.5 μg of RNase H in a final reaction volume of 50 μl. All reactions were cycled in a 60° C. water bath, in microcentrifuge tubes (uncapped) for 50 minutes. Reactions were stopped with the addition of an equal volume of diluted beads (50 μg of beads/reaction in Cycling Buffer and NaCl), while still in the water bath. Binding and detection were carried out as described above. […]

Series [3] concerns borderline oxacillin resistant S. aureus (BORSA) isolates. The experiment in a line: Minimal inhibitory concentration (MIC) using E-Test. The conditions noted are these: Staphylococcus aureus. It counts as cell-based. How it is done: (§1) The crude lysate preparations, probe synthesis, CPT procedure and analyses were carried out as described in Example 4 except that the cells were picked from the TSA blood plate with a 1 μl plastic loop (PML Microbiological, Richmond, BC, Canada) resuspended in 50 μl of 0.05% Triton X-100® in 20 mM TES buffer (pH 6.8) and lysed with the addition of achromopeptidase (Wako Bioproducts) as described in Example 4. The DNA was heat denatured at 95° C. for 5 minutes prior to use. The experiment was carried out as an operator blind study. The isolates were also tested with conventional oxacillin screening agar (PML Microbiological), Kirby-Bauer Disc diffusion, minimal inhibitory concentration (MIC) using E-Test with 4% NaCl Meuller-Hinton and S. aureus were tested with the BBL® Crystal™ MRSA ID test (Beckton Dickinson).

Series [4] shares this test system. Nature of the series: Disk diffusion, oxacillin in the presence of clavulanic acid. It counts as cell-based, Staphylococcus aureus. How it is done:
as §1
(In general: A growth-free zone around the sample is the usual read-out of agar diffusion tests.)

[5] abbreviates: 58 isolates, Fluoroskan plate reader, relative to culture and PCR resolution.
Where [6] appears, read: 120 isolates, 1 pmol probe, Beacon-2000 tube fluorometer.
Where [7] appears, read: 120 isolates, Beacon-2000 tube fluorometer.

In the case of “FmecA945-29B (DNA AATAGAGAAAAAGAAAAAAGATGGCAAAG; sugars from the 5' end d13 r4 d12, 5' {Fluorescein}, 3' {Biotin}, backbone and methylation of C not given here; further chemistry not fully specified)”, the results for the “A650 nm Mean” value in the series with mecA gene [1] (MRSA clinical isolate lysates) and with mecA gene [1] (MSSA clinical isolate lysates) were 0.053 and 0.239, respectively. Moreover, in the series on mecA 227 bp amplicon (20 cycle PCR, serial dilution of crude lysates), the “starting MRSA cells whose amplicon CPT-EIA could detect” value is on record as at least 100 cells. The probe cleaved with mecA 227 bp amplicon (100 MRSA cell equivalent samples, 20 cycle PCR) turned out to be 80%. For the same compound, the “number of times the target is cycled in CPT” value in the series on mecA 227 bp amplicon (100 MRSA cell equivalents, assuming 100% PCR efficiency (175 amol)) is given as “at least 50”.

For “FmecA945-29(XL)4B3 (DNA AATAGAGAAAAAGAAAAAAGATGGCAAAG; fluorescein and biotin labels, chimeric DNA/RNA, further chemistry not given here)”, in the series on mecA gene [2] (setting [5]), the “sensitivity for detection of the mecA gene” value turned out to be 100% and the “specificity for detection of the mecA gene” value worked out at 100%. In the series with mecA gene [2] (setting [6]), the “range of fluorescence of MRSA samples” value is 144.2-191.9 and the “range of fluorescence of MSSA samples” value was 58.1-101.7 RFU. In addition, in the series with mecA gene [2] (setting [7]), the “net gap between the highest MSSA sample and the lowest MRSA” value was determined as 42.5 RFU; the sensitivity is listed as 100%; the specificity was determined as 98%.

In the case of `Cc1onc(-c2ccccc2)c1C(=O)N[C@@H]1C(=O)N2[C@@H]1SC(C)(C)[C@@H]2C(=O)O` [oxacillin], the MIC – broadly, the smallest concentration in the dilution series that meets the test's criterion for growth inhibition – in series [3] (4 S. aureus isolates lacking mecA, oxacillin agar screen positive) was in the range of 3 to 16 mg/L (≈ 7.47 to 39.9 µM); in series [3] (additional 31 S. aureus isolates lacking mecA, E test) it was 3 to 12 mg/L (≈ 7.47 to 29.9 µM). Also, in series [4], the “susceptibility by disk diffusion” value is reported as “susceptible”.
